How the values were obtained:
Type in all cases: cell-based
Cox B virus [1] = assay: Plaque reduction assay against Cox B virus
Method: (§1) Compounds: 10 mg were dissolved in 1 mL (10% DMSO and 90% deionized water), sterilized by 1% antibiotic–antimycotic mixture and stored in −20.
(§2) Cells: Vero cell line was used. The cells were propagated in DMEM medium (Lonza, USA) supplemented with 10% fetal bovine serum (Gibco, USA), 1% antibiotic–antimycotic mixture (Lonza, USA).
Virus: Cox B virus was propagated and titrated to give final count of 0.9 × 10^5 viral particle/mL.
This test was done according to Tebas et al.[47], In a 12-well plate Vero cells (10^5 cells/mL) were cultivated for 1 day at 37 °C. The Cox B virus was mixed with the safe concentration of the compound and incubated for 1 h at 37 °C before being added to the cells. Following the removal of the growth media, the cells were injected with virus-extract combinations ([…]) and then rinsed with PBS (Phosphate Buffer Saline). Following a one-hour contact period for virus adsorption, the cell monolayer was supplemented with one milliliter of Dulbecco’s Modified Eagles Media (DMEM) containing 2% agarose. The plates were then allowed to solidify and incubated at 37 °C until the development of viral plaques. Formalin (10%) was added for 2 h then plates were stained with crystal violet. Control wells were included where untreated virus was incubated with Vero cells and finally plaques were counted and percentage reduction in plaques formation in comparison to control wells was recorded as following:
% inhibition = (viral count(untreated) - viral count(treated))/viral count(untreated)X100.

Cox B virus [2] = assay: Mechanism of virus inhibition: viral adsorption; settings: for Viral count (treated): Adsorption, control 1.6 × 10^7
Method: (§3) For a compound having an antiviral effect, this might be due to the effect on viral replication, the effect on viral adsorption, or the direct effect on the viral particle.
Viral adsorption[49] Vero cells were cultivated in a 6-well plate (10^5 cells/mL) for 1 day at 37 °C. The compound was applied at different concentrations in […] medium without supplements and coincubated with the cells for 2 h at 4 °C. The virus was coincubated with the pretreatment cells for one hour after the unadsorbed extract was eliminated by washing the cells three times in PBS. Next, 2 mL of DMEM supplemented with 2% agarose were added. The plates were left to solidify and incubated till the appearance of plaques.

Cox B virus [3] = assay: Mechanism of virus inhibition: virucidal; settings: for Viral count (treated): Virucidal, control 1.6 × 10^7
Method: For a compound having an antiviral effect, this might be due to the effect on viral replication, the effect on viral adsorption, or the direct effect on the viral particle. Virucidal[50] the assay was conducted in a 6-well plate with Vero cells that were cultured for two days at 37 °C (10^5 cells/mL). A volume of […] serum-free DMEM containing 1.5 × 10^2 PFU from Cox B was added to the concentration of the compound resulting in viral inhibition, after 1 h incubation, The mixture was diluted three times using serum-free media, which leaves almost no extract but still permits the existence of virus particles to develop on Vero cells. 100 mL of each dilution was then introduced to the Vero cell monolayer. The DMEM overlayer was added to the cell monolayer after a one-hour contact period. The plates were left to solidify then incubated till the appearance of plaques.

Cox B virus [4] = assay: Mechanism of virus inhibition: viral replication; settings: for Viral count (treated): Replication, control 1.6 × 10^7
Method: as §3
Viral replication[48] Assay was carried out in a 6-well plate where Vero cells were cultivated (10^5 cells/ml) for 1 day at 37 °C. The cells were directly inoculated with the virus. After an hour of incubation, unadsorbed viral particles were eliminated by repeatedly washing the cells with PBS.
The compound was applied at different concentrations, and after 1 h contact time, 2 mL of DMEM medium supplemented with 2% agarose were added to the cell monolayer. Plates were left to solidify then incubated till the appearance of plaques.

Vero cells = assay: Cytotoxicity assay on Vero cells (microscopic morphology); parameters: key to Cytotoxicity on Vero cells (cell sheet affected): -: Safe concentration; + 1, +2, + 3, +4: about 25, 50, 75, 100% of cell sheet was affected respectively; + 1, +2, + 3, +4: about 25, 50, 75, 100% of cell sheet was affected respectively; + 1, +2, + 3, +4: about 25, 50, 75, 100% of cell sheet was affected respectively; + 1, +2, + 3, +4: about 25, 50, 75, 100% of cell sheet was affected respectively; M: masked (color of compounds made cells unseen); settings: for Cytotoxicity on Vero cells (cell sheet affected): 24 h, morphological changes
Method: as §1, §2
Cytotoxic effect of compounds was measured by inoculation different doses of compounds on tested cells then examining them microscopically after 24 h to determine any morphological changes that appeared on cells as a result of being subjected to the compounds[46]. Vero cells were seeded onto 96-well plates, which were then incubated for the whole night. After a 24-hour incubation period at 37 °C in a humidified incubator with 5% CO2, compounds were injected at concentrations of 10, 20, 30, 40, 50, 60, 70, 80, 90, and 100 µg /100 µl. Any morphological changes were monitored under a microscope.

For `COc1ccc(OC)c(C=C2/C(=N/Nc3nc(C)c(/N=N/c4ccccc4)s3)c3ccccc3/C2=N\Nc2nc(C)c(/N=N/c3ccccc3)s2)c1` [7a, 2,2’-(((1E,3E)−2-(2,5-dimethoxybenzylidene)−1H-indene-1,3(2H)-diylidene)bis(hydrazin-1-yl-2-ylidene))bis(4-methyl-5-((E)-phenyldiazenyl)thiazole)], the “Viral count (treated)” value (Cox B virus [1]; 20 ug/mL) was 0.54 × 10 ^7, the “Viral count (treated)” value (Cox B virus [1]; 40 ug/mL) was 0 × 10 ^7 and the inhibition at 20 µg/mL (Cox B virus [1]; Vero) was 66%. For the same compound, the inhibition at 40 µg/mL (Cox B virus [1]; Vero) was 100%, the “Antiviral activity against Cox B virus (in words)” value (Cox B virus [1]; at tested concentrations) was “high viral inhibition” and the “Effect on viral adsorption (in words)” value (Cox B virus [2]) was “inhibiting both viral adsorption and replication”. It also gave an inhibition at 20 µg/mL (Cox B virus [2]) of 42%, an inhibition at 40 µg/mL (Cox B virus [2]) of 57% and an inhibition at 60 µg/mL (Cox B virus [2]) of 85%. The “Viral count (treated)” value (Cox B virus [2]; 20 µg/ml) was 0.92 × 10^7, the “Viral count (treated)” value (Cox B virus [2]; 40 µg/ml) was 0.68 × 10^7 and the “Viral count (treated)” value (Cox B virus [2]; 60 µg/ml) was 0.24 × 10^7. For the same compound, the inhibition at 20 µg/mL (Cox B virus [3]) was 0%, the inhibition at 40 µg/mL (Cox B virus [3]) was 12% and the inhibition at 60 µg/mL (Cox B virus [3]) was 37%. For the same compound, the “Viral count (treated)” value (Cox B virus [3]; 20 µg/ml) was 1.6 × 10^7, the “Viral count (treated)” value (Cox B virus [3]; 40 µg/ml) was 1.4 × 10^7 and the “Viral count (treated)” value (Cox B virus [3]; 60 µg/ml) was 1 × 10^7. For the same compound, the “Effect on viral replication (in words)” value (Cox B virus [4]) was “inhibiting both viral adsorption and replication”, the inhibition at 20 µg/mL (Cox B virus [4]) was 37% and the inhibition at 40 µg/mL (Cox B virus [4]) was 48%. The inhibition at 60 µg/mL (Cox B virus [4]) was 56%, the “Viral count (treated)” value (Cox B virus [4]; 20 µg/ml) was 1 × 10^7 and the “Viral count (treated)” value (Cox B virus [4]; 40 µg/ml) was 0.8 × 10^7. The “Viral count (treated)” value (Cox B virus [4]; 60 µg/ml) was 0.7 × 10^7, the “Cytotoxicity on Vero cells (cell sheet affected)” value (shortened to “Cytotoxicity on Vero cells”) (Vero cells; 10 µg/100µl) was “-” and the “Cytotoxicity on Vero cells” value (Vero cells; 20 µg/100µl) was “-”. The “Cytotoxicity on Vero cells” value (Vero cells; 30 µg/100µl) was “-”, the “Cytotoxicity on Vero cells” value (Vero cells; 40 µg/100µl) was “-” and the “Cytotoxicity on Vero cells” value (Vero cells; 50 µg/100µl) was “-”. The “Cytotoxicity on Vero cells” value (Vero cells; 70 µg/100µl) was “M”, the “Cytotoxicity on Vero cells” value (Vero cells; 80 µg/100µl) was “M” and the “Cytotoxicity on Vero cells” value (Vero cells; 90 µg/100µl) was “M”. For the same compound, the “Cytotoxicity on Vero cells” value (Vero cells; 100 µg/100µl) was “M” and the “Safety effect on Vero cells (in words)” value (Vero cells; Table 1, 24 h) was “dense and coloured that made masking to the cell sheet”.

Source: PMC11599599, “Synthesis, characterization, molecular docking, pharmacokinetics, and molecular dynamics of new bis-thiazoles based on bis-thiosemicarbazone as anti-coxsackievirus” (Scientific Reports, 2024)
